This is an account of results in the supplement of paper PMC11208160.
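Note: IS621 bridge recombinase in Escherichia coli cells against a fixed T5 target plasmid.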

This data set can be described thus: recombinant UMI read abundance after kanamycin selection (control-corrected) (log10(CPM+1)); higher = more efficient recombination; extreme values may be limits of the assay; sequences stand for … in AGTGCAGAGAAAATCGGCCAGTTTTCTCTGCCTGCAGTCCGCATGCCGTGGGACCCCTTGGGTTCTAACCTGTTGCCTAGATTTATGCAGCGGACTGCCTTTCTCCCAAAGTGATAAACCGG…AGGTTGGTTTCACT; site = the 11-nt donor. In a few lines:
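Sequencing read counts were converted to CPM, averaged over two replicates and scaled by control-derived factors. Results are given as log10(CPM+1). The reads covered the donor–target junction of recombinant UMIs from a pooled Escherichia coli screen of donor and donor-binding-loop pairs for the IS621 bridge recombinase.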
For the sequence “CCTAATACATGGACCGGTTTTCCCGGTAATCCGTATTTGTC (site CCTAATACTGA)”, the “recombinant UMI read abundance (log10)” value was 0. For the sequence “CCTAATACATGGACCGGTTTTCCCGGTAATCCGTATTTGTC (site CCTAATACTGC)”, the “recombinant UMI read abundance (log10)” value came out at 0. As for “CCTAATACATGGACCGGTTTTCCCGGTAATCCGTATTTGTC (site CCTAATACTGG)”, the figure is 0; as for “CCTAATACATGGACCGGTTTTCCCGGTAATCCGTATTTGTC (site CCTAATACTGT)”, 0. As for “CCTAATGCATGGACCGGTTTTCCCGGTAATCCGTATTTGGC (site CCTAATACTGC)”, the figure is 0; as for “CCTAATGCATGGACCGGTTTTCCCGGTAATCCGTATTTGGC (site CCTAATCCTGC)”, 0; as for “CCTAATGCATGGACCGGTTTTCCCGGTAATCCGTATTTGGC (site CCTAATGCTGC)”, 0. Turning to “CCTAATGCATGGACCGGTTTTCCCGGTAATCCGTATTTGGC (site CCTAATTCTGC)”, the “recombinant UMI read abundance (log10)” value amounted to 0.

“CCTACGGCATGGACCGGTTTTCCCGGTAATCCGTATTTGCG (site CCTACGGCTCG)”: the “recombinant UMI read abundance (log10)” value turned out to be 0.00682. As for “CCTATGGCATGGACCGGTTTTCCCGGTAATCCGTATTTGGT (site CCTATGGCTAC)”, the figure is 0.012. Regarding “CCTATTTCATGGACCGGTTTTCCCGGTAATCCGTATTTGAA (site CCTATTTCTTT)”, the “recombinant UMI read abundance (log10)” value was determined as 0. For the sequence “CCTCAGCCATGGACCGGTTTTCCCGGTAATCCGTATTTGGC (site CCTCAGCCTGC)”, the “recombinant UMI read abundance (log10)” value amounted to 0. As for “CCTCCTTCATGGACCGGTTTTCCCGGTAATCCGTATTTGCT (site CCTCCTTCTAG)”, the figure is 0; as for “CCTCGTACATGGACCGGTTTTCCCGGTAATCCGTATTTGGT (site CCTCGTACTAC)”, 0.0115; as for “CCTGAACCATGGACCGGTTTTCCCGGTAATCCGTATTTGGT (site CCTGAACCTAC)”, 0.00702.

For the sequence “CCTGATACATGGACCGGTTTTCCCGGTAATCCGTATTTGTA (site CCTGATACTTA)”, the “recombinant UMI read abundance (log10)” value amounted to 0.326. As for “CCTGCCCCATGGACCGGTTTTCCCGGTAATCCGTATTTGGC (site CCTGCCCCTGC)”, the figure is 0; as for “CCTGGCTCATGGACCGGTTTTCCCGGTAATCCGTATTTGCA (site CCTGGCTCTTG)”, 0.

With “CCTGTAACATGGACCGGTTTTCCCGGTAATCCGTATTTGCA (site CCTGTAACTTG)”, the “recombinant UMI read abundance (log10)” value stood at 0.

As to “CCTGTACCATGGACCGGTTTTCCCGGTAATCCGTATTTGCG (site CCTGTACCTCG)”, the “recombinant UMI read abundance (log10)” value is 0.0076. For “CCTTAGCCATGGACCGGTTTTCCCGGTAATCCGTATTTGAA (site CCTTAGCCTTT)”, the “recombinant UMI read abundance (log10)” value was 0. With “CCTTATACATGGACCGGTTTTCCCGGTAATCCGTATTTGAG (site CCTTATACTCT)” the figure was 0.0212. With “CCTTCTCCATGGACCGGTTTTCCCGGTAATCCGTATTTGTG (site CCTTCTCCTCA)” the figure was 0.0156. With “CCTTCTTCATGGACCGGTTTTCCCGGTAATCCGTATTTGGG (site CCTTCTTCTCC)” the figure was 0.00401; with “CCTTCTTCATGGACCGGTTTTCCCGGTAATCCGTATTTGTC (site CCTTCTTCTGA)”, 0.

Regarding “CCTTTAGCATGGACCGGTTTTCCCGGTAATCCGTATTTGTG (site CCATTAGCTCA)”, the “recombinant UMI read abundance (log10)” value was found to be 0.00718. On to “CCTTTAGCATGGACCGGTTTTCCCGGTAATCCGTATTTGTG (site CCCTTAGCTCA)”, for which the “recombinant UMI read abundance (log10)” value amounted to 0.00968. As for “CCTTTAGCATGGACCGGTTTTCCCGGTAATCCGTATTTGTG (site CCGTTAGCTCA)”, the figure is 0.00885.

Consider “CCTTTAGCATGGACCGGTTTTCCCGGTAATCCGTATTTGTG (site CCTTTAGCTCA)”, for which the “recombinant UMI read abundance (log10)” value was found to be 0.0063.

For “CCTTTGCCATGGACCGGTTTTCCCGGTAATCCGTATTTGGC (site CCTTTGCCTGC)”, the “recombinant UMI read abundance (log10)” value came out at 0. With “CCTTTGTCATGGACCGGTTTTCCCGGTAATCCGTATTTGGA (site CCTTTGTCTTC)” the figure was 0.00278; with “CGAAAAGCATGGACCGGTTTTCCCGGTAATCCGTATTTGCA (site CGAAAAGCTTG)”, 0. With “CGAAAGACATGGACCGGTTTTCCCGGTAATCCGTATTTGGG (site CGAAAGACTCC)” the figure was 0.621. As for “CGAAAGACATGGACCGGTTTTCCCGGTAATCCGTATTTGGT (site CGAAAGACTAC)”, the figure is 2; as for “CGAAAGGCATGGACCGGTTTTCCCGGTAATCCGTATTTGCT (site AGAAAGGCTAG)”, 0. Turning to “CGAAAGGCATGGACCGGTTTTCCCGGTAATCCGTATTTGCT (site CGAAAGGCTAG)”, the “recombinant UMI read abundance (log10)” value was 2.39.

Consider “CGAAAGGCATGGACCGGTTTTCCCGGTAATCCGTATTTGCT (site GGAAAGGCTAG)”, for which the “recombinant UMI read abundance (log10)” value stood at 0. With “CGAAAGGCATGGACCGGTTTTCCCGGTAATCCGTATTTGCT (site TGAAAGGCTAG)” the figure was 0. “CGAACCACATGGACCGGTTTTCCCGGTAATCCGTATTTGTG (site CGAACCACTCA)”: the “recombinant UMI read abundance (log10)” value came to 0.523. With “CGAACGACATGGACCGGTTTTCCCGGTAATCCGTATTTGTT (site CGAACGACTAA)” the figure was 1.08; with “CGAACGACATGGACCGGTTTTCCCGGTAATCCGTATTTGTT (site CGACCGACTAA)”, 0.00483. With “CGAACGACATGGACCGGTTTTCCCGGTAATCCGTATTTGTT (site CGAGCGACTAA)”, the “recombinant UMI read abundance (log10)” value is 0.0306. With “CGAACGACATGGACCGGTTTTCCCGGTAATCCGTATTTGTT (site CGATCGACTAA)” the figure was 0.00769; with “CGAACTCCATGGACCGGTTTTCCCGGTAATCCGTATTTGGG (site CGAACTCCTCC)”, 0.143. As for “CGAAGACCATGGACCGGTTTTCCCGGTAATCCGTATTTGGG (site CGAAGACCTCC)”, the figure is 0; as for “CGAAGACCATGGACCGGTTTTCCCGGTAATCCGTATTTGGG (site CGACGACCTCC)”, 0.0149; as for “CGAAGACCATGGACCGGTTTTCCCGGTAATCCGTATTTGGG (site CGAGGACCTCC)”, 0.0232. Take “CGAAGACCATGGACCGGTTTTCCCGGTAATCCGTATTTGGG (site CGATGACCTCC)”: the “recombinant UMI read abundance (log10)” value was found to be 0.006. As for “CGAAGTCCATGGACCGGTTTTCCCGGTAATCCGTATTTGCG (site CGAAGTCCTCG)”, the figure is 1.21; as for “CGAATAACATGGACCGGTTTTCCCGGTAATCCGTATTTGCC (site CGAATAACTGG)”, 0.484. Consider “CGACAATCATGGACCGGTTTTCCCGGTAATCCGTATTTGAC (site CGACAATCTGT)”, for which the “recombinant UMI read abundance (log10)” value was found to be 2.86. In the case of “CGACCAACATGGACCGGTTTTCCCGGTAATCCGTATTTGAT (site GAGGGGCCTTC)”, the “recombinant UMI read abundance (log10)” value stood at 0.006. As for “CGACCATCATGGACCGGTTTTCCCGGTAATCCGTATTTGGT (site CGACCATCTAC)”, the figure is 0.825; as for “CGACCATCATGGACCGGTTTTCCCGGTAATCCGTATTTGGT (site CGATCATCTAG)”, 0; as for “CGACCCTCATGGACCGGTTTTCCCGGTAATCCGTATTTGCT (site CGACCCTCTAG)”, 3.63. Take “CGACCCTCATGGACCGGTTTTCCCGGTAATCCGTATTTGCT (site CGATCATCTAG)”: the “recombinant UMI read abundance (log10)” value was 0. With “CGACGACCATGGACCGGTTTTCCCGGTAATCCGTATTTGAC (site CGACGACCTGT)” the figure was 0; with “CGACGGTCATGGACCGGTTTTCCCGGTAATCCGTATTTGTC (site CGACGGTCTGA)”, 2.77; with “CGACGTACATGGACCGGTTTTCCCGGTAATCCGTATTTGCT (site CGACGTACTAG)”, 2.45. As for “CGACGTACATGGACCGGTTTTCCCGGTAATCCGTATTTGCT (site CGCCGTACTAG)”, the figure is 0.0167; as for “CGACGTACATGGACCGGTTTTCCCGGTAATCCGTATTTGCT (site CGGCGTACTAG)”, 0.688. As for “CGACGTACATGGACCGGTTTTCCCGGTAATCCGTATTTGCT (site CGTCGTACTAG)”, the figure is 0.764; as for “CGACTTGCATGGACCGGTTTTCCCGGTAATCCGTATTTGAT (site CGACTTGCTAT)”, 2.39. As for “CGAGAGGCATGGACCGGTTTTCCCGGTAATCCGTATTTGGG (site CGAGAGGCTCC)”, the “recombinant UMI read abundance (log10)” value is 0.928. With “CGAGCATCATGGACCGGTTTTCCCGGTAATCCGTATTTGCT (site CGAACATCTAG)” the figure was 0; with “CGAGCATCATGGACCGGTTTTCCCGGTAATCCGTATTTGCT (site CGACCATCTAG)”, 0; with “CGAGCATCATGGACCGGTTTTCCCGGTAATCCGTATTTGCT (site CGAGCATCTAG)”, 1.79. As to “CGAGCATCATGGACCGGTTTTCCCGGTAATCCGTATTTGCT (site CGATCATCTAG)”, the “recombinant UMI read abundance (log10)” value stood at 0.
